Test results published in patent publication US7759346B2, “[[2-(amino-3,4-dioxo-1-cyclobuten-1-yl)amino]alkyl]-acid derivatives for the treatment of pain” (priority 2001, dated 2010).
Where two headings read alike, the source gives them in different places.

Tests used:
[1] = test system: monkeys; settings: cited from earlier work
[2] = test system: Spraque-Dawley rats; assay: Scheduled-controlled responding (operant responding, food presentation); settings: for Operant responding: response rate as a percent of control: IP; for rates of responding (in words): schedule of food presentation, Compound A IP or PO at doses that reversed hypersensitivity
From the text: (§1) [formula] in which 50%^drug+CCl is the 50% value after compound in animals approximately one week after CCl surgery, 50%^CCl is the 50% value approximately one week after CCl surgery alone, and 50%^baseline is the 50% value before CCl surgery. Maximal effect of 100% reversal represents a return to the mean pre-operative threshold value for subjects in that experimental condition. Test Method 3: Scheduled-Controlled Responding.
Rats were trained under a multiple-cycle procedure during experimental sessions conducted five days each week. Each training cycle consisted of a 1-min pretreatment period followed by a 10-min response period. During the pretreatment period, stimulus lights were not illuminated, and responding had no scheduled consequences. During the response period, the left or right stimulus lights were illuminated (counterbalanced among subjects), the response lever was extended and subjects could respond under a fixed ratio 30 schedule of food presentation. Training sessions consisted of 3 consecutive cycles. Testing sessions were identical to training sessions except that a single dose of drug was administered at the start of the first cycle.
Data analysis. Operant response rates from individual animals were averaged for the three cycles during test sessions and were converted to percent of control response rates using the average rate from the previous training day as the control value (i.e., average of three cycles). Data are presented as the mean (±1 SEM) response rate as a percent of control.

[3] = test system: Spraque-Dawley rats; assay: Chronic Constriction Injury-induced tactile hypersensitivity (von Frey); format: in vivo, rat; settings: for % Reversal of CCl-induced tactile hypersensitivity: IP, one week after CCl surgery; for reversal of CCl-induced tactile hypersensitivity (in words): up to doses that produced observable signs of sedation and ataxia
From the text: Rats were anesthetized with 3.5% halothane in O2 at 1 L/min and maintained with 1.5% halothane in O2 during surgery. A modified chronic sciatic nerve constriction injury (Mosconi & Kruger, 1996; Bennett & Xie, 1988) was produced by a cutaneous incision and a blunt dissection through the biceps femoris to expose the sciatic nerve. A PE 90 Polyethylene tubing (Intramedic, Clay Adams; Becton Dickinson Co.) cuff (2 mm length) was placed around the sciatic nerve at the level of the mid-thigh. The wound was closed in layers using 4-0 silk suture and wound clips. Testing was conducted 6-10 days after surgery.
Animals were placed in elevated wire cages and allowed 45-60 minutes to acclimate to the testing room. Baseline tactile sensitivity was assessed using a series of calibrated von Frey monofilaments (Stoelting; Wood Dale, Ill.) 0-3 days before surgery. Von Frey monofilaments were applied to the mid-plantar hind paw in sequential ascending or descending order, as necessary, to hover as closely as possible to the threshold of responses. The threshold was indicated by the lowest force that evoked a brisk withdrawal response to the stimuli. Thus, a withdrawal response led to the presentation of the next lighter stimulus and the lack of a withdrawal response led to the presentation of the next stronger stimulus. Rats with baseline thresholds <10 g force were excluded from the study. […] Under cumulative dosing conditions, compounds were administered IP every 30 minutes with the cumulative dose increasing in ½ log unit increments. Tactile hypersensitivity was assessed 20-30 minutes following each drug administration.
Test Method 2 Data Analysis—The 50% threshold values (in gm force) estimated by the Dixon non-parametric test (Chaplan et al, 1994) was calculated and fifteen-grams of force was used as the maximal force. Dose-effect curves were generated for each experimental condition for each rat. Individual tactile hypersensitivity threshold values were averaged to provide a mean (±1 SEM). Reversal of tactile hypersensitivity was defined as a return to baseline tactile sensitivity and was calculated according to the following equation:
as §1

[4] = test system: rats trained to discriminate between saline and PCP; settings: cited from earlier work
[5] = test system: Spraque-Dawley rats; assay: Prostaglandin E2-induced thermal hypersensitivity, warm-water tail withdrawal, single compound studies; format: in vivo, rat; settings: for % MPE (reversal of PGE2-induced thermal hypersensitivity): given 30 min before PGE2
Description: Ketamine and dizocilpine are high affinity use-dependent NMDA receptor channel blockers, while memantine is a moderate affinity use-dependent NMDA receptor channel blocker. CGS-19755 is a competitive NMDA antagonist and ifenprodil is a […] polyamine antagonist. Test Method 1: Prostaglandin E2-Induced Thermal Hypersensitivity.
(§2) The terminal 10 cm of the tail was placed into a thermos bottle containing water warmed to 38, 42, 46, 50, 54, or 58° C. The latency in seconds for the animal to remove the tail from the water was used as a measure of nociception.
(§3) Following the assessment of baseline thermal sensitivity, thermal hypersensitivity was produced by a 50 μL injection of 0.1 mg prostaglandin E2 (PGE2) into the terminal 1 cm of the tail. Temperature-effect curves were generated before (baseline) and after (15, 30, 60, 90 and 120 min) the PGE2 injection.
Single compound studies. The ability of drugs to reverse PGE2-induced thermal hypersensitivity was assessed using a single dose time-course procedure. Under this procedure, a single dose of the compound to be tested was administered intraperitoneally (IP), orally (PO) or intranasally (IN) 30 min before the injection of PGE2. […] sensitivity was assessed 30 min after PGE2 injection.
(§4) Test Method 1 Data Analysis—The temperature that produced a half-maximal increase in the tail-withdrawal latency (i.e., T10) was calculated from each temperature-effect curve. The T10 was determined by interpolation from a line drawn between the point above and the point below 10 sec on the temperature-effect curve. For these studies, thermal hypersensitivity was defined as a leftward shift in the temperature-effect curve and a decrease in the T10 value. Reversal of thermal hypersensitivity was defined as a return to baseline of the temperature-effect curve and the T10 value and was calculated according to the following equation:
[formula] in which T10^drug+PGE2 is the T10 after a drug in combination with PGE2, T10^PGE2 is the T10 after PGE2 alone, and T10^baseline is the T10 under control conditions. A % MPE value of 100 indicates a complete return to the baseline thermal sensitivity observed without the PGE2 injection. […] Test Method 2: Chronic Constriction Injury

[6] = test system: Spraque-Dawley rats; assay: Observable signs of sedation and ataxia
[7] = test system: cingulate and retrosplenial cortices of mice and rats; settings: cited from earlier work
[8] = test system: Spraque-Dawley rats; format: in vivo, rat
Description: as §2, §3
Compounds were administered IP at the same time as PGE2, which was administered 30 min before testing.
as §4, with “equation: […]” for “equation:”

[9] = test system: Spraque-Dawley rats; assay: Warm-water tail withdrawal combination studies with morphine; format: in vivo, rat; settings: 30 min before testing
Description: as §2
Combination compound studies. […] Compounds were administered IP at the same time 30 min before testing.
as §4, with “equation: […]” for “equation:”

[10] = IP, CCl-induced tactile hypersensitivity study
[11] = IP, PGE2-induced thermal hypersensitivity study

## CC12CC3CC(C)(C1)CC(N)(C3)C2 [memantine]
[1]
  self-administration: maintains self-administration
[2]; 3 mg/kg
  Operant responding: response rate as a percent of control: 93%
[2]; 10 mg/kg
  Operant responding: response rate as a percent of control: 2%
[2]
  rates of responding (in words): dose-dependently decreased rates of responding
[3]; cumulative dose 3 mg/kg
  % Reversal of CCl-induced tactile hypersensitivity: −25%
[3]; cumulative dose 10 mg/kg
  % Reversal of CCl-induced tactile hypersensitivity: −45%
[3]
  reversal of CCl-induced tactile hypersensitivity (in words): none of the comparative compounds produced any reversal
[4]
  substitution for the PCP-like discriminative stimulus effects: substitute for the PCP-like discriminative stimulus effects
[5]; IP, 3 mg/kg
  % MPE (reversal of PGE2-induced thermal hypersensitivity): 13%
[5]; IP, 10 mg/kg
  % MPE (reversal of PGE2-induced thermal hypersensitivity): 15%
[5]; PO, 10 mg/kg
  % MPE (reversal of PGE2-induced thermal hypersensitivity): −1%
[5]; PO, 30 mg/kg
  % MPE (reversal of PGE2-induced thermal hypersensitivity): 11%
[5]; PO, 100 mg/kg
  % MPE (reversal of PGE2-induced thermal hypersensitivity): 5%
[6]; [10]
  doses that produced observable signs of sedation and ataxia: < 10 mg/kg
[6]; [11]
  doses that produced observable signs of sedation and ataxia: < 10 mg/kg
[6]; PO, PGE2-induced thermal hypersensitivity study
  doses that produced observable signs of sedation and ataxia: < 100 mg/kg

## O=c1c2c(c1=O)N(Cc1nnn[nH]1)CCCN2 [Compound B, 2-[(1H-Tetrazol-5-yl)methyl]-2,6-diazabicyclo[5.2.0]-non-1-(7)-ene-8,9-dione]
[3]; cumulative dose 1 mg/kg
  % Reversal of CCl-induced tactile hypersensitivity: 13%
[3]; cumulative dose 3 mg/kg
  % Reversal of CCl-induced tactile hypersensitivity: 14%
[3]; cumulative dose 10 mg/kg, 10 mg/kg
  % Reversal of CCl-induced tactile hypersensitivity: 40%
[3]; cumulative dose 30 mg/kg
  % Reversal of CCl-induced tactile hypersensitivity: 12%
[5]; PO, 3 mg/kg
  % MPE (reversal of PGE2-induced thermal hypersensitivity): 16%
[5]; PO, 10 mg/kg
  % MPE (reversal of PGE2-induced thermal hypersensitivity): 92%
[5]; PO, 30 mg/kg
  % MPE (reversal of PGE2-induced thermal hypersensitivity): 101%
[5]; rat, in vivo
  reversal of PGE2-induced thermal hypersensitivity (in words): full reversal
[6]; doses used in the CCl-induced tactile hypersensitivity study, IP
  sedation or ataxia: not associated with sedation or ataxia

## CC(C(O)c1ccc(O)cc1)N1CCC(Cc2ccccc2)CC1 (centres unmarked) [ifenfrodil, ifenprodil]
[5]; IP, 10 mg/kg
  % MPE (reversal of PGE2-induced thermal hypersensitivity): 1%
[5]; IP, 30 mg/kg
  % MPE (reversal of PGE2-induced thermal hypersensitivity): 14%

## C[C@]12N[C@H](Cc3ccccc31)c1ccccc12 [dizocilpine]
[2]; 0.1 mg/kg
  Operant responding: response rate as a percent of control: 63%
[2]; 0.3 mg/kg
  Operant responding: response rate as a percent of control: 16%
[2]
  rates of responding (in words): dose-dependently decreased rates of responding
[4]
  substitution for the PCP-like discriminative stimulus effects: substitute for the PCP-like discriminative stimulus effects
[5]; IP, 0.3 mg/kg
  % MPE (reversal of PGE2-induced thermal hypersensitivity): 18%
[6]; [11]
  doses that produced observable signs of sedation and ataxia: < 0.3 mg/kg

## O=C(O)[C@H]1C[C@@H](CP(=O)(O)O)CCN1 (relative stereo) [CGS-19755, cis-4-phosphonomethyl-2-piperidine carboxylic acid]
[7]; cingulate and retrosplenial cortices of mice and rats
  vacuolization (in words): caused vacuolization at behaviorally effective doses
[7]; mice and rats, behaviorly effective doses
  effectiveness/vacuolization ratio: 1
[3]; cumulative dose 3 mg/kg
  % Reversal of CCl-induced tactile hypersensitivity: −9%
[3]; cumulative dose 10 mg/kg
  % Reversal of CCl-induced tactile hypersensitivity: −5%
[3]; cumulative dose 30 mg/kg
  % Reversal of CCl-induced tactile hypersensitivity: −17%
[3]
  reversal of CCl-induced tactile hypersensitivity (in words): none of the comparative compounds produced any reversal
[5]; IP, 3 mg/kg
  % MPE (reversal of PGE2-induced thermal hypersensitivity): 9%
[5]; IP, 10 mg/kg
  % MPE (reversal of PGE2-induced thermal hypersensitivity): 25%
[5]; IP, 30 mg/kg
  % MPE (reversal of PGE2-induced thermal hypersensitivity): 9%
[6]; [10]
  doses that produced observable signs of sedation and ataxia: < 30 mg/kg

## CNC1(c2ccccc2Cl)CCCCC1=O (centres unmarked) [ketamine]
[8]; 18.0 mg/kg IP with PGE2, PGE2 + vehicle −5.6
  Change from Baseline (T10): −5.5
[9]; 18.0 mg/kg IP
  Change from Baseline (T10): −0.3
[4]
  substitution for the PCP-like discriminative stimulus effects: substitute for the PCP-like discriminative stimulus effects
[5]; IP, 10 mg/kg
  % MPE (reversal of PGE2-induced thermal hypersensitivity): 14%
[5]; IP, 18 mg/kg
  % MPE (reversal of PGE2-induced thermal hypersensitivity): 9%

## CN1CC[C@]23c4c5ccc(O)c4O[C@H]2[C@@H](O)C=C[C@H]3[C@H]1C5 [Morphine, morphine]
[8]; rat, in vivo
  Change from Baseline (T10): +0.3
[9]; morphine 5.6 mg/kg IP
  Change from Baseline (T10): +2.3
